Results as given in patent EP0605261B1, “Use of a flavone derivative as taste modifier and a method of modifying taste” (SAN-EI GEN F.F.I., INC., priority 1992, dated 1994).

How the values were obtained:
Format in all cases: in vivo
[1] = Sensory test: body and deliciousness (bread); details: 0.00002 (g) Compound 5, 8 panellers
Experimental: Compound 5 of the flavone derivative (I) was used as a taste modifier. Strong flour, yeast food, bread yeast and water were mixed and fermented for four hours at 28°C. Dough materials comprising strong flour, sugar, powdered skim milk, shortening and water, and the flavone derivative (I) were added thereto and subjected to dough process, followed by baking for 25 minutes at 220°C, thereby preparing bread. Flavone derivative (I) free bread was prepared in the same manner as a control.
Sensory tests for obtained bread were conducted by 8 panellers comprised of 6 males and 2 females at the age from 20 to 40.

[2] = Five points evaluation test: saltiness and brackish taste modifying effect (soy sauce with low salt concentration); parameters: key: five-point scale; additive-free standard solution scored 2; details: average points of 5 panellers (2: no changes)
Experimental: Compound 5 of the flavone derivative (I) was used as a taste modifier. To commercially available soy sauce with low salt concentration (salt concentration: 7 w/w%), 1, 0.1 and 0.01 ppm of the flavone derivative (I) was added respectively to prepare sample solutions. Sensory tests were carried out for the respective concentrations of sample solutions and 1/2 diluted solutions thereof. Flavone derivative (I) free solutions were used as standard solutions.
The sensory tests were conducted by 5 trained panellers to examine saltiness modifying effect (so called saltiness adapting effect) and brackish taste modifying effect.
(§1) Each sample solution was evaluated assuming that the standard solution has the point of 2.

[3] = Sensory test (limiting method): enhancing the sourness of acid sugar solution; parameters: key: (equivalent citric acid content / citric acid content with flavone) × 100; details: citric acid 1.000 (g), flavone derivative (I) 0.00001 (g), 8 panellers; for Value of enhancing the sourness Ascending system: ascending system (from low concentration); for Value of enhancing the sourness Descending system: descending system (from high concentration)
Experimental: Compounds 1 to 11 of the flavone derivative (I) were used as a taste modifier to prepare acid sugar solution having compositions as follows:
As a control, 21 types of acid sugar solutions are used. In the control, the flavone derivative (I) is removed from the above composition and the content of citric acid is varied from 1.000 g to 1.500 g by 0.025 g.
Sensory tests were carried out by 8 trained panellers in accordance with a limiting method described in the Hand Book of Sensory evaluation, edited by Research Committee of sensory evaluation, Union of Japanese Scientists and Engineers, p.398 (1973) in use of acid sugar solutions containing respective flavone derivatives (I) and another acid sugar solutions having a various content of citric acid.
As for the content of citric acid, two types sensory tests were conducted, one was an ascending system (testing from solution with low concentration) and another was a descending system (testing from solution with high concentration).
The sensory evaluation was made by a value of enhancing the sourness. The value of enhancing the sourness was calculated by the following formula based on the content of citric acid in acid sugar solutions with varied concentration of citric acid, which has an equivalent stimulation with an acid sugar solution containing the flavone derivative (I) Value of enhancing the sourness = (content of citric acid in acid sugar solution sensed as an equivalent stimulation/content of citric acid in acid sugar solution containing the flavone derivative (I)) x 100 [formula]

[4] = Five points evaluation test: saltiness and savor modifying effect (salted squid); parameters: key: five-point scale; untreated standard scored 2; details: average points of 5 panellers (2: no changes)
Experimental: Compound 5 of the flavone derivative (I) was used as a taste modifier. To commercially available salted squids, 1, 0.1 and 0.01 ppm of the flavone derivative (I) was added respectively to prepare samples. Sensory tests were carried out for the saltiness and the savor of salted squid. Flavone derivative (I) free salted squids were used as standards.
The sensory tests were conducted by 5 trained panellers to examine saltiness modifying effect (so called saltiness adapting effect) and savor modifying effect.
as §1

[5] = Sensory test: body and deliciousness (casing boiled fish paste); details: 0.0001 (g) Compound 11, 8 panellers
Experimental: Compound 11 of the flavone derivative (I) was used as a taste modifier. Ground fish meat, salt, starch, water and the flavone derivative (I) were mixed. In accordance with a general method, casing boiled fish paste containing the flavone derivative (I) was prepared. Alternatively, flavone derivative (I) free casing boiled fish paste was prepared by the same method as a control.
Sensory tests for obtained casing boiled fish paste were conducted by 8 panellers comprised of 6 males and 2 females at the age from 20 to 40.

[6] = Sensory test: refreshness, its continuity and quality of taste (refreshing drink); details: 0.2 g flavor composition H (0.000001(g) Compound 11) vs G, 8 panellers
Experimental: Compound 11 of the flavone derivative (I) was used as a taste modifier. Refreshing drink containing the above flavor composition G (control) or H (containing the flavone derivative (I)) was prepared.
First, 10 g of fructose/glucose sugar solution, 0.1 g of citric acid (crystal), 0.2 g of the flavor composition G and 88.5 g of water were mixed to dissolve, followed by heating up to 93 °C, immediately transmitted to a bottle and sealed. Then, it was cooled in water, thereby preparing flavone derivative (I) free refreshing drink.
Alternatively, flavone derivative (I)-containing refreshing drink was prepared by the same method using the flavor composition H instead of the flavor composition G.
Sensory tests for obtained refreshing drink were carried out by 8 panellers comprised of 6 males and 2 females at the age from 20 to 40.

[7] = 0.01 ppm, Soy sauce 1/2 dilution
[8] = 0.01 ppm, Soy sauce Undiluted solution
[9] = 0.10 ppm, Soy sauce 1/2 dilution
[10] = 0.10 ppm, Soy sauce Undiluted solution
[11] = 1.00 ppm, Soy sauce 1/2 dilution
[12] = 1.00 ppm, Soy sauce Undiluted solution

COc1cc(OC)c2c(=O)cc(-c3ccc(OC)c(OC)c3)oc2c1 [Compound 5, 3',4',5,7-tetramethoxyflavone]
Body: Those who sensed no difference [1]: 1 number of people | Body: Those who sensed the flavone derivative (I) additive is better [1]: 7 number of people | Deliciousness: Those who sensed no difference [1]: 2 number of people | Deliciousness: Those who sensed the flavone derivative (I) additive is better [1]: 6 number of people | Quality of taste: Those who sensed no difference [1]: 1 number of people | Quality of taste: Those who sensed the flavone derivative (I) additive is better [1]: 7 number of people | Brackish Taste Modifying Effect [2, 7]: 3.6 | Saltiness Modifying Effect [2, 7]: 3.8 | Brackish Taste Modifying Effect [2, 8]: 3.4 | Saltiness Modifying Effect [2, 8]: 3.6 | Brackish Taste Modifying Effect [2, 9]: 4.0 | Saltiness Modifying Effect [2, 9]: 4.0 | Brackish Taste Modifying Effect [2, 10]: 3.4 | Saltiness Modifying Effect [2, 10]: 3.6 | Brackish Taste Modifying Effect [2, 11]: 4.0 | Saltiness Modifying Effect [2, 11]: 4.4 | Brackish Taste Modifying Effect [2, 12]: 4.0 | Saltiness Modifying Effect [2, 12]: 4.0 | Value of enhancing the sourness Ascending system [3]: 118 | Value of enhancing the sourness Descending system [3]: 121 | Saltiness and Savor Modifying Effect: Saltiness ([4]; 0.01 ppm): 3.0 | Saltiness and Savor Modifying Effect: Savor ([4]; 0.01 ppm): 3.6 | Saltiness and Savor Modifying Effect: Total evaluation ([4]; 0.01 ppm): 3.4 | Saltiness and Savor Modifying Effect: Saltiness ([4]; 0.10 ppm): 3.4 | Saltiness and Savor Modifying Effect: Savor ([4]; 0.10 ppm): 3.8 | Saltiness and Savor Modifying Effect: Total evaluation ([4]; 0.10 ppm): 3.6 | Saltiness and Savor Modifying Effect: Saltiness ([4]; 1.00 ppm): 3.8 | Saltiness and Savor Modifying Effect: Savor ([4]; 1.00 ppm): 4.0 | Saltiness and Savor Modifying Effect: Total evaluation ([4]; 1.00 ppm): 3.8

3,3',4',5,5',6,7,8-octamethoxyflavone [Compound 11]
Body: Those who sensed no difference [5]: 2 number of people | Body: Those who sensed the flavone derivative (I) additive is better [5]: 6 number of people | Deliciousness: Those who sensed no difference [5]: 1 number of people | Deliciousness: Those who sensed the flavone derivative (I) additive is better [5]: 7 number of people | Quality of taste: Those who sensed no difference [5]: 1 number of people | Quality of taste: Those who sensed the flavone derivative (I) additive is better [5]: 7 number of people | Continuity of refreshness: Those who sensed H additive is better [6]: 8 number of people | Continuity of refreshness: Those who sensed no difference [6]: 0 number of people | Quality of taste: Those who sensed H additive is better [6]: 6 number of people | Quality of taste: Those who sensed no difference [6]: 2 number of people | Refreshness: Those who sensed H additive is better [6]: 7 number of people | Refreshness: Those who sensed no difference [6]: 1 number of people | Value of enhancing the sourness Ascending system [3]: 125 | Value of enhancing the sourness Descending system [3]: 128
